From ChEMBL document CHEMBL2029213, “Multiple determinants for selective inhibition of apicomplexan calcium-dependent protein kinase CDPK1” (J Med Chem, 2012)

Key:
[1] = target: Proto-oncogene tyrosine-protein kinase Src (Homo sapiens, UniProt P12931)
Description: Inhibition of human SRC by radiometric assay

[2] = target: Tyrosine-protein kinase ABL1 (Homo sapiens, UniProt P00519)
Tyrosine-protein kinase ABL1, sequence (P00519 whole entry): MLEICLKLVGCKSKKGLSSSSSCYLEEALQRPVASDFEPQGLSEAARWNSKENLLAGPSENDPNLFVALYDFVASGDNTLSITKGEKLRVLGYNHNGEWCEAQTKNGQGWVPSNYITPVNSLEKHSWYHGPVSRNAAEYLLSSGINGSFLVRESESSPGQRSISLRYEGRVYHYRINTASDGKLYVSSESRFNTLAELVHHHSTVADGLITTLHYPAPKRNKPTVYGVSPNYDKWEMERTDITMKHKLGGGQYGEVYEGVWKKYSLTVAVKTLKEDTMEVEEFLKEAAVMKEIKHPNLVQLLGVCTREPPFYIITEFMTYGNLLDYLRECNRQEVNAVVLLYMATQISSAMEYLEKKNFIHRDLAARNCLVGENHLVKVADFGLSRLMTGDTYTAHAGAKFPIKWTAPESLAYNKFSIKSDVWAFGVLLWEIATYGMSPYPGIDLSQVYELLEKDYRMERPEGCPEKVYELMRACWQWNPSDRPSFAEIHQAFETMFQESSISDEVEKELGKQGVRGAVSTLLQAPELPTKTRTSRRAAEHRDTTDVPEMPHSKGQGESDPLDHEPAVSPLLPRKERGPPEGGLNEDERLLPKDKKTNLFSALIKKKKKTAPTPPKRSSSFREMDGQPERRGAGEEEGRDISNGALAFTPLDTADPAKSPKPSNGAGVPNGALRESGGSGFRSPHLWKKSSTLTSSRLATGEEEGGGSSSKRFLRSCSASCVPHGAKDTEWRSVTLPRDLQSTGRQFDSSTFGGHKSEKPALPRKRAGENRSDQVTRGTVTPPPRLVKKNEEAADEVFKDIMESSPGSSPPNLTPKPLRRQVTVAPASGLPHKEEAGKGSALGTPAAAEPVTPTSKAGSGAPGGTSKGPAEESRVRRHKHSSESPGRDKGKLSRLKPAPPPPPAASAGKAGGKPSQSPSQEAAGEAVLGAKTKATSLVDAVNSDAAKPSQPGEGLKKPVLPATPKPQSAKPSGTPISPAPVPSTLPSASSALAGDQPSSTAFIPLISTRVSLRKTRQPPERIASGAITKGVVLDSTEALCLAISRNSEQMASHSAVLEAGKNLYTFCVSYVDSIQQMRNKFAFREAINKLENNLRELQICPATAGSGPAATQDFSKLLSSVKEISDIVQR
Description: Inhibition of human ABL by radiometric assay

Proto-oncogene tyrosine-protein kinase Src, sequence (P12931 2-536 limits assumed): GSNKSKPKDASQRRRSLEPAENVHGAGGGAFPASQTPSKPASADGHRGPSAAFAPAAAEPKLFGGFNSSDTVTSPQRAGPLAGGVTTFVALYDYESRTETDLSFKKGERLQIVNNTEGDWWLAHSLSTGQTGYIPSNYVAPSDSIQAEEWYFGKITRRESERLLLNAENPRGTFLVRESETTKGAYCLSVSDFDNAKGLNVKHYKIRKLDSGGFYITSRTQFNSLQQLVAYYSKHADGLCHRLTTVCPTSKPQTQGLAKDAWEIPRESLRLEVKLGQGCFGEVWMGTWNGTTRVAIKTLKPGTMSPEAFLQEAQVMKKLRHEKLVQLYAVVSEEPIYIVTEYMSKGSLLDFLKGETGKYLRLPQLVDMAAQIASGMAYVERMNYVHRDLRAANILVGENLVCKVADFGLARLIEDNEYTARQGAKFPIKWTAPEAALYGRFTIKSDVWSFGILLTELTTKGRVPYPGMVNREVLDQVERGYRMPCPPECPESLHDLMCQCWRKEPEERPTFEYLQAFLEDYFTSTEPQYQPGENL

| SMILES | Ki [1] [µM] | Ki [2] [µM] |
| --- | --- | --- |
| Nc1nc2ccc(C(=O)c3ccccc3)cc2[nH]1 | > 10 | 10 |
| Nc1ncnc2c1c(-c1cnc3ccccc3c1)nn2CC1CCNCC1 | > 20 | > 15 |
| COc1ccc2cc(-c3nn(CC4CCNCC4)c4ncnc(N)c34)ccc2c1 | > 20 | > 15 |
| Nc1ncnc2c1cnn2CC1CCNCC1 | > 10 | > 10 |
| COC(=O)Nc1nc2ccc(C(=O)c3ccccc3)cc2[nH]1 [MEBENDAZOLE] |  | 4.6 |
| CC(C)n1nc(-c2cc3c(Cl)cccc3[nH]2)c2c(N)ncnc21 | 1.24 |  |
| COc1ccc2cc(-c3nn(C(C)C)c4ncnc(N)c34)ccc2c1 | 0.77 |  |
| Nc1nc2ccc(C(=O)c3ccccc3)cc2n1CC1CCNCC1 | > 10 | > 10 |
| CCOc1ccc2cc(-c3nn(CC4CCNCC4)c4ncnc(N)c34)ccc2c1 | > 20 | > 15 |
